pIC50: −log10 of the molar value.

The pIC50 is the negative decadic logarithm of the IC50, by convention in mol/L. Broadly, the inhibition is how much of the control response was suppressed.

In one experiment the target is T1, PDGF-Ra (Homo sapiens, UniProt P16234).
T1 construct: host or cells: G-292 human osteosarcoma cells
T1 sequence (P16234 24-1089): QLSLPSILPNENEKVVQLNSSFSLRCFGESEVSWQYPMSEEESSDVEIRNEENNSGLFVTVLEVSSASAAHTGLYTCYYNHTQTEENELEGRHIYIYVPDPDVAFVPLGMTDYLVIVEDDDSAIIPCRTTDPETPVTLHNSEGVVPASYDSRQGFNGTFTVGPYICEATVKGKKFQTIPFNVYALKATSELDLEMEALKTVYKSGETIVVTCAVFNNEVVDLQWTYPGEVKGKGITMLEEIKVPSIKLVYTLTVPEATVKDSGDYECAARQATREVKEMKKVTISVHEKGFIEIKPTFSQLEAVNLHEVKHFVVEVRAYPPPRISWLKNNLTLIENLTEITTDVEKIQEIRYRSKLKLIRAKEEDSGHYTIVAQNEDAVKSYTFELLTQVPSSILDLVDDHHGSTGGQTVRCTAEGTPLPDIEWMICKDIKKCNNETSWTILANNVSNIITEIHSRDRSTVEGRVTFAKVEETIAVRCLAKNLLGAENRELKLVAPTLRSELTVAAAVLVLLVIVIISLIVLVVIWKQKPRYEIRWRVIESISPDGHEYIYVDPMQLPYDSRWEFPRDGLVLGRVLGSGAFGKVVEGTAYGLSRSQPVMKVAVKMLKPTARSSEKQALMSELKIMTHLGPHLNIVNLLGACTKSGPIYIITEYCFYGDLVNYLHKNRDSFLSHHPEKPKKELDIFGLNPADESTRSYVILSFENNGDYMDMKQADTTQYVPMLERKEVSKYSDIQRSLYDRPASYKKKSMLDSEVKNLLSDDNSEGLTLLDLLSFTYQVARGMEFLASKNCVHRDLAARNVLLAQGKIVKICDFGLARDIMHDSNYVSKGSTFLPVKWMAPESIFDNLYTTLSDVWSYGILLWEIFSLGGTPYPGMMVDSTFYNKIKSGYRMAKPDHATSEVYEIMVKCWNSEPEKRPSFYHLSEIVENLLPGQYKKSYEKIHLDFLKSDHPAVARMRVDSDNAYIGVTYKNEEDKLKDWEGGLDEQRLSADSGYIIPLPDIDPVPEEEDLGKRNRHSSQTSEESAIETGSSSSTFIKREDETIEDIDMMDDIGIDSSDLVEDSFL
Put plainly: Inhibitory activity against PDGF-Ra phosphorylation by PDGF-AA stimulation using G292. In kind it is cell-based. Particulars: Pharmacological Test Example 1; > means inhibition at indicated concentration not more than 50%, < and << not less than 50%; read-out: PDGF (E) IC50. How it is done:
Measurement of Inhibitory Activity Against PDGF-Ra Phosphorylation by PDGF-AA Stimulation Using G292
G-292 human osteosarcoma cells (Dainippon Pharmaceutical Co. Ltd.) were cultured in a DMEM medium (Dainippon Pharmaceutical Co. Ltd.) containing 10% FBS within an incubator containing 5% carbon dioxide until 80% confluent, and the cells were planted at 3×10^4 cells per well in 96-well flat-bottom plates in the same medium containing 0.1% FBS. After cultivation at 37° C. overnight, a solution of a test compound in dimethyl sulfoxide was added to each well, and a reaction was allowed to proceed at 37° C. for one hr.
After the reaction of the test compound, PDGF-AA (Upstate) was added to 50 ng/ml, and the cells were stimulated at 37° C. for 5 min. Thereafter, the cells were solubilized and shaken at room temperature for 20 min.
This solubilized cell solution was transferred to a 96-well plate coated with aniti-phosphotyrosine antibody PY-20, and a reaction was allowed to proceed at 4° C. overnight. Anti-PDGF-Ra (c-20) (Santa Cruz) was added as a primary antibody, and a reaction was allowed to proceed for one hr. GAR (Anti-rabbit Ig, horseradish peroxidase, Amersham) was then added as a secondary antibody, and a reaction was allowed to proceed for one hr. Color development was carried out using a color development kit for peroxidase (Sumitomo Bakelite Co., Ltd.), and the absorbance was measured at 450 nm.
Turning to “1-[3-(Trifluoromethoxy)phenyl]ethyl N-{4-[(6,7-dimethoxy-4-quinolyl)oxy]-2,3-dimethylphenyl}carbamate [Example 181]”, the pIC50 was < 7.00.

Consider “4-(Dimethylamino)butyl N-{4-[(6,7-dimethoxy-4-quinolyl)oxy]phenyl}carbamate [Example 192]”, for which the pIC50 is 7.25.

On to `COc1cc2ncnc(Oc3ccc(NC(=O)OCCCSc4ccc(C(C)(C)C)cc4)cc3)c2cc1OC` [Example 75, 3-{[4-(Tert-butyl)phenyl]sulfanyl}propyl N-{4-[(6,7-dimethoxy-4-quinazolinyl)oxy]phenyl}carbamate], for which the pIC50 was 7.60.

As to `COc1cc2ncnc(Oc3ccc(NC(=O)OC(C)c4ccc(F)cc4)c(Cl)c3)c2cc1OC` (centres unmarked) [Example 106, 1-(4-Fluorophenyl)ethyl N-{2-chloro-4-[(6,7-dimethoxy-4-quinazolinyl)oxy]phenyl}carbamate], the pIC50 was 7.92.

In the case of `COc1cc2ncnc(Oc3ccc(NC(=O)OC(C)c4ccccc4Br)c(Cl)c3)c2cc1OC` (centres unmarked) [Example 116, 1-(2-Bromophenyl)ethyl N-{2-chloro-4-[(6,7-dimethoxy-4-quinazolinyl)oxy]phenyl}carbamate], the pIC50 was 7.51.

Regarding `COc1cc2nccc(Oc3cc(C)c(NC(=O)Sc4ccc(Cl)cc4C)cc3C)c2cc1OC` [Example 178, 4-Chloro-2-methylphenyl{4-[(6,7-dimethoxy-4-quinolyl)oxy]-2,5-dimethylanilino}methanethioate], the pIC50 is < 7.00.

`COc1cc2ncnc(Oc3ccc(NC(=O)Sc4ccc(Cl)cc4C)cc3)c2cc1OC` [Example 179, 4-Chloro-2-methylphenyl{4-[(6,7-dimethoxy-4-quinazolinyl)oxy]anilino}methanethioate]: the pIC50 is 7.15.

Turning to `COc1cc2nccc(Oc3ccc(NC(=O)OC(C)c4cccc(OC(F)(F)F)c4)cc3)c2cc1OC` (centres unmarked) [Example 180, 1-[3-(Trifluoromethoxy)phenyl]ethyl N-{4-[(6,7-dimethoxy-4-quinolyl)oxy]phenol}carbamate], the pIC50 was 7.20.

`COc1cc2nccc(Oc3cc(C)c(NC(=O)OC(C)c4cccc(OC(F)(F)F)c4)cc3C)c2cc1OC` (centres unmarked) [Example 182, 1-[3-(Trifluoromethoxy)phenyl]ethyl N-{4-[(6,7-dimethoxy-4-quinolyl)oxy]-2,5-dimethylphenyl}carbamate]: the pIC50 was < 7.00.

As for `CCCC(OC(=O)Nc1ccc(Oc2ccnc3cc(OC)c(OC)cc23)c(C)c1C)c1ccccc1` (centres unmarked) [Example 185, 1-Phenylbutyl N-{4-[(6,7-dimethoxy-4-quinolyl)oxy]-2,3-dimethylphenyl}carbamate], the pIC50 was 7.34.

Regarding `CCCC(OC(=O)Nc1cc(C)c(Oc2ccnc3cc(OC)c(OC)cc23)cc1C)c1ccccc1` (centres unmarked) [Example 186, 1-Phenylbutyl N-{4-[(6,7-dimethoxy-4-quinolyl)oxy]-2,5-dimethylphenyl}carbamate], the pIC50 is 7.20.

For `COc1cc2nccc(Oc3ccc(NC(=O)OCCN(C)C)c(C)c3C)c2cc1OC` [Example 189, 2-(Dimethylamino)ethyl N-{4-[(6,7-dimethoxy-4-quinolyl)oxy]-2,3-dimethylphenyl}carbamate], the pIC50 was 7.24.

As for `COc1cc2nccc(Oc3cc(C)c(NC(=O)OCCN(C)C)cc3C)c2cc1OC` [Example 190, 2-(Dimethylamino)ethyl N-{4-[(6,7-dimethoxy-4-quinolyl)oxy]-2,5-dimethylphenyl}carbamate], the pIC50 was < 7.00.

Turning to `COc1cc2nccc(Oc3ccc(NC(=O)OCCCCN(C)C)c(C)c3C)c2cc1OC` [Example 193, 4-(Dimethylamino)butyl N-{4-[(6,7-dimethoxy-4-quinolyl)oxy]-2,3-dimethylphenyl}carbamate], the pIC50 is 7.24.

In the case of `COc1cc2nccc(Oc3ccc(NC(=O)OC(c4ccccc4)C(C)C)cc3)c2cc1OC` (centres unmarked) [Example 195, 2-Methyl-1-phenylpropyl N-{4-[(6,7-dimethoxy-4-quinolyl)oxy]phenyl}carbamate], the pIC50 is 7.18.

Take `COc1cc2nccc(Oc3ccc(NC(=O)OC(c4ccccc4)C(C)C)c(C)c3C)c2cc1OC` (centres unmarked) [Example 196, 2-Methyl-1-phenylpropyl N-{4-[(6,7-dimethoxy-4-quinolyl)oxy]-2,3-dimethylphenyl}carbamate]: the pIC50 was 7.31.

Take `COc1cc2nccc(Oc3cc(C)c(NC(=O)OC(c4ccccc4)C(C)C)cc3C)c2cc1OC` (centres unmarked) [Example 197, 2-Methyl-1-phenylpropyl N-{4-[(6,7-dimethoxy-4-quinolyl)oxy]-2,5-dimethylphenyl}carbamate]: the pIC50 is 7.03.

With `COc1cc2ncnc(Oc3ccc(NC(=O)OC(c4ccccc4)C(C)C)cc3)c2cc1OC` (centres unmarked) [Example 198, 2-Methyl-1-phenylpropyl N-{4-[(6,7-dimethoxy-4-quinazolinyl)oxy]phenyl}carbamate], the negative logarithm of the IC50 (pIC50) is 7.68.

For `COc1cc2nccc(Oc3cc(C)c(NC(=O)OC(C)c4cccc(N(C)C)c4)cc3C)c2cc1OC` (centres unmarked) [Example 201, 1-[3-(Dimethylamino)phenyl]ethyl N-{4-[(6,7-dimethoxy-4-quinolyl)oxy]-2,5-dimethylphenyl}-carbamate], the pIC50 was < 7.00.

For `COc1cc2nccc(Oc3cc(C)c(NC(=O)OCCOc4ccccc4F)cc3C)c2cc1OC` [Example 205, 2-(2-Fluorophenoxy)ethyl N-{4-[(6,7-dimethoxy-4-quinolyl)oxy]-2,5-dimethylphenyl}carbamate], the pIC50 was 7.11.

With `COc1cc2nccc(Oc3cc(C)c(NC(=O)OCCOc4cccc(F)c4)cc3C)c2cc1OC` [Example 209, 2-(3-Fluorophenoxy)ethyl N-{4-[(6,7-dimethoxy-4-quinolyl)oxy]-2,5-dimethylphenyl}carbamate], the pIC50 was < 7.00.

`COc1cc2nccc(Oc3ccc(NC(=O)OCCC4CCCCC4)cc3)c2cc1OC` [Example 353, 2-Cyclohexylethyl N-{4-[(6,7-dimethoxy-4-quinolyl)oxy]phenyl}carbamate]: the pIC50 is > 8.00.

The next experiment deals with T2, c-kit (Homo sapiens, UniProt P10721).
T2 construct: MO7e (human megakaryocytic leukemia cell line) which had been arrested for 20 hr; endogenous in cells; host or cells: MO7e human megakaryocytic leukemia cell line
T2 sequence (P10721 26-976): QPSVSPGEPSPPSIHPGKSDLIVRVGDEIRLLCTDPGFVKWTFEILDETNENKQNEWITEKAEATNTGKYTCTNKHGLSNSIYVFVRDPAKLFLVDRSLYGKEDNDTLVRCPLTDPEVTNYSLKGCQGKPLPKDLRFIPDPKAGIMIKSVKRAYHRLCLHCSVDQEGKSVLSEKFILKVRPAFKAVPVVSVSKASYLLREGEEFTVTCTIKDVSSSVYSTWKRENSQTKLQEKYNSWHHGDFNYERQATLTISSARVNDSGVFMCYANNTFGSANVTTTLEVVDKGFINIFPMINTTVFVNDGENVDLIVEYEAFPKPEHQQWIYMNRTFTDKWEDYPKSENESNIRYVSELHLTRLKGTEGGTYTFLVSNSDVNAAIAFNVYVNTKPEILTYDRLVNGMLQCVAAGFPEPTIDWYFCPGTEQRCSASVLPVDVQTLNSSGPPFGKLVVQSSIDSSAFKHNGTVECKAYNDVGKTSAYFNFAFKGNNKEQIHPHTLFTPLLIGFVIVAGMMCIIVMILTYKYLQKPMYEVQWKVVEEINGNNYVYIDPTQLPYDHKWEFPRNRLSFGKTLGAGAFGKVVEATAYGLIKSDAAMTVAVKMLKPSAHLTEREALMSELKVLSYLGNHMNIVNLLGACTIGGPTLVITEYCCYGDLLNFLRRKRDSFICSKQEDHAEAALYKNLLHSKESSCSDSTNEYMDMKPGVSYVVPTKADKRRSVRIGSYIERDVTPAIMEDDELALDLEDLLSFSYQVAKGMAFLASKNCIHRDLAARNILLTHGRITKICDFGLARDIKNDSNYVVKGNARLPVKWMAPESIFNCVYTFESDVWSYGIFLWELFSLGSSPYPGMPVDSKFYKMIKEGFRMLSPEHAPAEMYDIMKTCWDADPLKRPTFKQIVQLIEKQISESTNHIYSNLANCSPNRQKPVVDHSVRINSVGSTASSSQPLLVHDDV
Put plainly: Inhibitory activity against c-kit autophosphorylation (MO7e cells, h-SCF). Format: cell-based. The conditions noted are these: MO7e cells, h-SCF stimulation; read-out: c-kit IC50. A digest of the protocol:
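In this cellular autophosphorylation assay, compound-treated MO7e cells (1 hr) were challenged with human stem cell factor at 50 ng/ml for 5 min; detection relied on PY-20 capture and anti-c-kit/HRP immunodetection at 450 nm.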
`COc1cc2nccc(Oc3ccc(NC(=S)NC(=O)c4ccc(Cl)c(Cl)c4)cc3)c2cc1OC` [Example 1120]: the pIC50 is 6.11.

Regarding `COc1cc2nccc(Oc3ccc(NC(=S)NC(=O)c4ccc(F)cc4F)c(F)c3)c2cc1OC` [Example 1121, N-(2,4-Difluorobenzoyl)-N′-{4-[(6,7-dimethoxy-4-quinolyl)oxy]-2-fluorophenyl}thiourea], the negative-log IC50 (pIC50) was > 7.52.

As for `COc1cc2nccc(Oc3ccc(NC(=S)NC(=O)CCc4ccccc4C)cc3F)c2cc1OC` [Example 1134, N-{4-[(6,7-Dimethoxy-4-quinolyl)oxy]-3-fluorophenyl}-N′-[3-(2-methylphenyl)propanoyl]thiourea], the pIC50 is 6.77.

Take `COc1cc2nccc(Oc3ccc(NC(=S)NC(=O)c4ccc5c(c4)OCO5)cc3F)c2cc1OC` [Example 1145, N-(1,3-Benzodioxol-5-ylcarbonyl)-N′-{4-[(6,7-dimethoxy-4-quinolyl)oxy]-3-fluorophenyl}thiourea]: the pIC50 is 6.26.

The same experiment, now with this note: Mo7e, figure in parentheses in −( ); at 1000 nM.
For `COc1ccc(C(=O)NC(=S)Nc2ccc(Oc3ccnc4cc(OC)c(OC)cc34)c(Cl)c2)c(OC)c1` [Example 1117, N-{3-Chloro-4-[(6,7-dimethoxy-4-quinolyl)oxy]phenyl}-N′-(2,4-dimethoxybenzoyl)thiourea], the inhibition at 1 µM stood at 31%.

For the compound `COc1cc2nccc(Oc3ccc(NC(=S)NC(=O)c4c(Cl)cccc4Cl)cc3)c2cc1OC` [Example 1118, N-(2,6-Dichlorobenzoyl)-N′-{4-[(6,7-dimethoxy-4-quinolyl)oxy]phenyl}thiourea], the inhibition at 1 µM was 0%.

In the case of `COc1ccc(C(=O)NC(=S)Nc2ccc(Oc3ccnc4cc(OC)c(OC)cc34)cc2)c(OC)c1` [Example 1119, N-(2,4-Dimethoxybenzoyl)-N′-{4-[(6,7-dimethoxy-4-quinolyl)oxy]phenyl}thiourea], the inhibition at 1 µM is 27%.

As for `COc1cc2ncnc(Oc3ccc(NC(=S)NC(=O)c4ccc(Cl)cc4Cl)cc3)c2cc1OC` [Example 1207, N-(2,4-Dichlorobenzoyl)-N′-{4-[(6,7-dimethoxy-4-quinazolinyl)oxy]phenyl}thiourea], the inhibition at 1 µM worked out at 16%.

For `COc1cc2nccc(Oc3ccc(NC(=S)NC(=O)c4ccc(F)cc4F)cc3Cl)c2cc1OC` [Example 1208, N-{3-Chloro-4-[(6,7-dimethoxy-4-quinolyl)oxy]phenyl}-N′-(2,4-difluorobenzoyl)thiourea], the inhibition at 1 µM is 22%.

Still in this experiment, the particulars now being: figure in parentheses in −( ); at 1000 nM; 1 µM.
On to `COc1cc2nccc(Oc3ccc(NC(=S)NC(=O)Cc4ccccc4)c(C)c3C)c2cc1OC` [Example 1206, N-{4-[(6,7-Dimethoxy-4-quinolyl)oxy]-2,3-dimethylphenyl}-N′-(2-phenylacetyl)thiourea], for which the “c-kit inhibition (%) at 1000 nM” value is “−(27) %”.

These data come from patent US7135466B2 (Kirin Beer Kabushiki Kaisha, priority 1999, dated 2006).
